Experimental data published in patent publication US5420140A, “Difluorinated quinolones useful for treating bacterial infections” (Bouchara S.A., priority 1991, dated 1995).
Values after ≈ are worked out from the molar mass of the structure shown. Where two headings read alike, the source gives them in different places.

Key:
[1] = tested on: Pseudomonas aeruginosa ATCC 22853; assay: Determination of MIC and MBC by microdilution method, Pseudomonas aeruginosa ATCC 22853; format: cell-based; settings: for MIC / MBC: Pseudomonas aeruginosa; for MIC: ATCC22853, 18 h, read-out: Minimal inhibitory concentration (MIC)
Protocol: (§1) The compound have been tested towards 7 reference strains:
Pseudomonas aeruginosa ATCC 22853
(§2) The preparation of these mother liquors has been performed and vary depending on the molecules as a function of the solubility criterions. Inoculation has been done by adding in each will, 10 μl of a dilution in saline of 18 hours old broth in a brain-heart broth, such as each well contains about 10^6 bacterias/ml. […]

[2] = tested on: S. aureus CB-951; assay: Determination of MIC and MBC by microdilution method, S. aureus CB-951; format: cell-based, Staphylococcus aureus; settings: for MIC / MBC: Staphylococcus aureus; for MIC: CB951, 18 h, read-out: Minimal inhibitory concentration (MIC)
Protocol: as §1
Staphylococcus aureus CB 951
(§3) The determination of minimal inhibitory concentrations (MIC) has been performed using a microdution method (microplates and inoculator Dynatech) in liquid medium (MUELLER-HINTON broth) under a volume of 100 μl and for a range of concentrations from 128 to 0.06 mg/l, prepared from a mother liquor of antibiotics titrating 512 mg/l. The preparation of these mother liquors has been performed and vary depending on the molecules as a function of the solubility criterions. Inoculation has been done by adding in each will, 10 μl of a dilution in saline of 18 hours old broth in a brain-heart broth, such as each well contains about 10^6 bacterias/ml.
(§4) The Minimal Inhibitory Concentrations are read as the first concentration of antibiotic which will not give a growth macroscopically detectable after 18 hours incubating at 37°.

[3] = tested on: Acinetobacter Baumanii ATCC 17904; assay: Determination of MIC and MBC by microdilution method, Acinetobacter; format: cell-based; settings: for MIC / MBC: Acinetobacter baumannii; for MIC: ATCC17904, 18 h, read-out: Minimal inhibitory concentration (MIC)
Protocol: The compound have been tested towards 7 reference strains: […]
as §3, §4

[4] = tested on: Staphylococcus aureus ATCC 25923; assay: Determination of MIC and MBC by microdilution method, Staphylococcus aureus ATCC 25923; format: cell-based; settings: for MIC / MBC: Staphylococcus aureus; for MIC: ATCC25923, 18 h, read-out: Minimal inhibitory concentration (MIC)
Protocol: as §1
Staphylococcus aureus ATCC 25923
as §3, §4

[5] = tested on: Streptococcus faecalis ATCC 8043; assay: Determination of MIC and MBC by microdilution method, Streptococcus faecalis ATCC 8043; format: cell-based; settings: for MBC / MIC: Enterococcus faecalis; for MIC: read-out: Minimal inhibitory concentration (MIC)
Protocol: as §1
Streptococcus faecalis ATCC 8043
as §2

[6] = tested on: Escherichia coli ATCC 25922; assay: Determination of MIC and MBC by microdilution method, Escherichia coli ATCC 25922; format: cell-based; settings: E. coli ATCC 25922; for MIC / MBC: Escherichia coli, ATCC25922; for MIC: read-out: Minimal inhibitory concentration (MIC); for MBC: read-out: Minimal bactericidal concentration (MBC)
Protocol: as §1
Escherichia coli ATCC 25922
as §3, §4

[7] = P. aeruginosa ATCC 22853, Mueller-Hinton broth, 18 hours at 37°
[8] = ATCC22853, P. aeruginosa ATCC 22853, read-out: Minimal bactericidal concentration (MBC)
[9] = S. aureus CB-951, methicillino, erythromycinolincomycino, pefloxacino resistant, Mueller-Hinton broth, 18 hours at 37°
[10] = CB951, S. aureus CB-951, methicillino, erythromycinolincomycino, pefloxacino resistant, read-out: Minimal bactericidal concentration (MBC)
[11] = Acinetobacter Baumanii ATCC 17904, Mueller-Hinton broth, 18 hours at 37°
[12] = ATCC17904, Acinetobacter Baumanii ATCC 17904, read-out: Minimal bactericidal concentration (MBC)
[13] = S. aureus ATCC 25923, Mueller-Hinton broth, 18 hours at 37°
[14] = ATCC25923, S. aureus ATCC 25923, read-out: Minimal bactericidal concentration (MBC)
[15] = ATCC8043, S. faecalis ATCC 8043, read-out: Minimal bactericidal concentration (MBC)
[16] = ATCC8043, S. faecalis ATCC 8043, Mueller-Hinton broth, 18 hours at 37°
[17] = Mueller-Hinton broth, 18 hours at 37°

Row | SMILES | MIC [1, 7] [µg/mL] | MBC [1, 8] [µg/mL] | MIC [2, 9] [µg/mL] | MBC [2, 10] [µg/mL] | MIC [3, 11] [µg/mL] | MBC [3, 12] [µg/mL] | MIC [4, 13] [µg/mL] | MBC [4, 14] [µg/mL] | MBC [5, 15] [µg/mL] | MIC [5, 16] [µg/mL] | MIC [6, 17] [µg/mL] | MBC [6] [µg/mL] | further results
1 | CCn1cc(C(=O)O)c(=O)c2cc(F)c(N3CCC(CNC(=O)Nc4ccc(OC)cc4)CC3)c(F)c21 [Compound 16, 7-[4-(4-methoxyphenyl)aminocarbonylaminomethylpiperidinyl-1] 6,8-difluoro1-ethyl] | > 16 | > 16 | 0.5 (≈ 0.972 µM) | 1 (≈ 1.94 µM) | 0.06 (≈ 0.117 µM) | 0.03 (≈ 0.0583 µM) | 0.06 (≈ 0.117 µM) | 0.06 (≈ 0.117 µM) | 16 (≈ 31.1 µM) | 8 (≈ 15.5 µM) | 16 (≈ 31.1 µM) | 16 (≈ 31.1 µM) | –
2 | CCn1cc(C(=O)O)c(=O)c2cc(F)c(N3CCC(CNC(=O)Nc4ccc(Cl)c(Cl)c4)CC3)c(F)c21 [Compound 14, 7-[4-(3,4-dichlorophenyl)aminocarbonylaminomethylpiperidinyl-1] 6,8-difluoro 1-ethyl] | > 16 | > 16 | 16 (≈ 28.9 µM) | > 16 | 4 (≈ 7.23 µM) | 8 (≈ 14.5 µM) | 2 (≈ 3.61 µM) | 8 (≈ 14.5 µM) | > 16 | > 16 | > 16 | > 16 | –
3 | CCC(=O)NCC1CCN(c2c(F)cc3c(=O)c(C(=O)O)cn(CCF)c3c2F)CC1 [Compound 8, 7-[(4-propionylaminomethyl)piperidinyl-1] 6,8-difluoro1-fluoroethyl 4-oxo 1,4-dihydroquinoleinyl-3 carboxylic acid] | > 12 | > 12 | 0.3 (≈ 0.683 µM) | 0.7 (≈ 1.59 µM) | 0.3 (≈ 0.683 µM) | 0.7 (≈ 1.59 µM) | 0.15 (≈ 0.341 µM) | 0.3 (≈ 0.683 µM) | > 12 | 6 (≈ 13.7 µM) | 6 (≈ 13.7 µM) | > 12 | –
4 | CCn1cc(C(=O)O)c(=O)c2cc(F)c(N3CCC(CNC(=O)CCO)CC3)c(F)c21 [Compound 2, 7-(4-(3-hydroxypropionylaminomethyl)piperidinyl-1) 6,8-difluoro 1-ethyl 4-oxo 1,4-dihydroquinoleinyl-3 carboxylic acid] | > 32 | > 32 | 4 (≈ 9.14 µM) | 4 (≈ 9.14 µM) | 2 (≈ 4.57 µM) | 4 (≈ 9.14 µM) | 0.5 (≈ 1.14 µM) | 1 (≈ 2.29 µM) | 4 (≈ 9.14 µM) | 4 (≈ 9.14 µM) | 8 (≈ 18.3 µM) | 8 (≈ 18.3 µM) | –
5 | CCn1cc(C(=O)O)c(=O)c2cc(F)c(N3CCC(CN)CC3)c(F)c21 [Compound a, 7-(4-aminomethylpiperidinyl-1) 6,8-difluoro 1-ethyl 4-oxo 1,4-dihydroquinoleinyl-3 carboxylic acid] | – | – | – | – | – | – | – | – | – | – | – | – | Minimal bactericidal concentration (MBC) ([1]; P. aeruginosa ATCC 22853): 4 µg/mL (≈ 10.9 µM); Minimal inhibitory concentration (MIC) [1, 7]: 2 µg/mL (≈ 5.47 µM); Minimal bactericidal concentration (MBC) ([2]; S. aureus CB-951, methicillino, erythromycinolincomycino, pefloxacino resistant): 2 µg/mL (≈ 5.47 µM); Minimal inhibitory concentration (MIC) [2, 9]: 2 µg/mL (≈ 5.47 µM); Minimal bactericidal concentration (MBC) ([3]; Acinetobacter Baumanii ATCC 17904): 0,25 μg/ml; Minimal inhibitory concentration (MIC) [3, 11]: 0,25 μg/ml; Minimal bactericidal concentration (MBC) ([4]; S. aureus ATCC 25923): 0,25 μg/ml; Minimal inhibitory concentration (MIC) [4, 13]: 0,25 μg/ml; Minimal bactericidal concentration (MBC) ([5]; S. faecalis ATCC 8043): 0,5 μg/ml; Minimal inhibitory concentration (MIC) ([5]; S. faecalis ATCC 8043, Mueller-Hinton broth, 18 hours at 37°): 0,5 μg/ml; Minimal bactericidal concentration (MBC) [6]: 0,5 μg/ml; Minimal inhibitory concentration (MIC) [6, 17]: 0,5 μg/ml
6 | CCn1cc(C(=O)O)c(=O)c2cc(F)c(N3CCC(CNC(=O)Nc4ccccc4)CC3)c(F)c21 [Compound 10, 7-[(4-Phenylaminocarboxamidomethyl)piperidinyl-1] 6,8-difluoro 1-ethyl 4-oxo 1,4-dihydroquinoleinyl-3 carboxylic acid] | 3 (≈ 6.19 µM) | 6 (≈ 12.4 µM) | 0.3 (≈ 0.619 µM) | 1.5 (≈ 3.1 µM) | 0.3 (≈ 0.619 µM) | 0.7 (≈ 1.44 µM) | 0.15 (≈ 0.31 µM) | 0.3 (≈ 0.619 µM) | > 25 | 25 (≈ 51.6 µM) | 0.7 (≈ 1.44 µM) | 0.7 (≈ 1.44 µM) | –
7 | NCC1CCN(c2c(F)cc3c(=O)c(C(=O)O)cn(CCF)c3c2F)CC1 [Compound 3, 7-(4-aminomethylpiperidinyl-1) 6,8-difluoro 1-fluoroethyl 4-oxo 1,4-dihydroquinoleinyl-3 carboxylic acid] | 8 (≈ 20.9 µM) | 16 (≈ 41.7 µM) | 4 (≈ 10.4 µM) | 8 (≈ 20.9 µM) | 2 (≈ 5.22 µM) | 4 (≈ 10.4 µM) | 0.5 (≈ 1.3 µM) | 1 (≈ 2.61 µM) | 4 (≈ 10.4 µM) | 2 (≈ 5.22 µM) | 2 (≈ 5.22 µM) | 2 (≈ 5.22 µM) | –
8 | CCC(=O)NCC1CCN(c2c(F)cc3c(=O)c(C(=O)O)cn(CC)c3c2F)CC1 [Compound 7, 7-[(4-propionylaminomethyl)piperidinyl-1] 6,8-difluoro 1-ethyl 4-oxo 1,4-dihydroquinoleinyl-3 carboxylic acid] | > 16 | > 16 | 1 (≈ 2.37 µM) | 1 (≈ 2.37 µM) | 0.25 (≈ 0.593 µM) | 0.5 (≈ 1.19 µM) | 0.5 (≈ 1.19 µM) | 0.51 (≈ 1.21 µM) | 8 (≈ 19 µM) | 8 (≈ 19 µM) | 8 (≈ 19 µM) | 8 (≈ 19 µM) | –
9 | CCn1cc(C(=O)O)c(=O)c2cc(F)c(N3CCC(CNC(=O)Nc4ccc(F)cc4F)CC3)c(F)c21 [Compound 18, 7-[4-(2,4-difluorophenyl)aminocarbonylaminomethylpiperidinyl-1] 6,8-difluoro 1-ethyl] | > 16 | > 16 | 0.25 (≈ 0.48 µM) | 0.25 (≈ 0.48 µM) | ≤ 0.12 | ≤ 0.12 | ≤ 0.12 | ≤ 0.12 | 2 (≈ 3.84 µM) | 2 (≈ 3.84 µM) | 2 (≈ 3.84 µM) | 4 (≈ 7.69 µM) | –
10 | CCn1cc(C(=O)O)c(=O)c2cc(F)c(N3CCC(CNC(=O)Nc4ccccc4F)CC3)c(F)c21 [Compound 19, 7-[4-(2-fluorophenyl)aminocarbonylaminomethylpiperidinyl-1] 6,8-difluoro 1-ethyl] | > 32 | > 32 | 0.03 (≈ 0.0597 µM) | 0.06 (≈ 0.119 µM) | – | – | – | – | 2 (≈ 3.98 µM) | 2 (≈ 3.98 µM) | 8 (≈ 15.9 µM) | 8 (≈ 15.9 µM) | –
11 | CCn1cc(C(=O)O)c(=O)c2cc(F)c(N3CCC(CNC(=O)Nc4ccc([N+](=O)[O-])cc4)CC3)c(F)c21 [Compound 17, 7-[4-(4-nitrophenyl)aminocarbonylaminomethylpiperidinyl-1] 6,8-difluoro 1-ethyl] | > 16 | > 16 | 1 (≈ 1.89 µM) | 1 (≈ 1.89 µM) | – | – | 0.03 (≈ 0.0567 µM) | 0.03 (≈ 0.0567 µM) | 8 (≈ 15.1 µM) | 4 (≈ 7.55 µM) | 16 (≈ 30.2 µM) | > 16 | –
12 | O=C(O)c1cn(C2CC2)c2cc(N3CCNCC3)c(F)cc2c1=O [Ciprofloxacine, reference compound] | – | – | – | – | – | – | – | – | – | – | – | – | MIC [1]: 0.12 µg/mL (≈ 0.362 µM); MBC ([1]; ATCC22853, read-out: Minimal bactericidal concentration (MBC)): 0.25 µg/mL (≈ 0.754 µM); MIC [2]: 4 µg/mL (≈ 12.1 µM); MBC ([2]; CB951, read-out: Minimal bactericidal concentration (MBC)): 4 µg/mL (≈ 12.1 µM); MIC [3]: 0.06 µg/mL (≈ 0.181 µM); MBC ([3]; ATCC17904, read-out: Minimal bactericidal concentration (MBC)): 0.06 µg/mL (≈ 0.181 µM); MIC [4]: 0.25 µg/mL (≈ 0.754 µM); MBC ([4]; ATCC25923, read-out: Minimal bactericidal concentration (MBC)): 0.25 µg/mL (≈ 0.754 µM); MIC ([5]; ATCC8043, 18 h): 0.25 µg/mL (≈ 0.754 µM); MBC ([5]; ATCC8043, read-out: Minimal bactericidal concentration (MBC)): 0.25 µg/mL (≈ 0.754 µM)
